This note sets out measurements from patent publication US20230279072A1, “REGULATORY T CELL EPITOPES” (EpiVax Inc., priority 2020, published 2023).

Data set [1] concerns panel of five common Class II HLA alleles: HLA-DRB1*0101, HLA-DRB1*0301, HLA-DRB1*0701, HLA-DRB1*1101, and HLA-DRB1*1501. Description: Soluble HLA competition binding assay, panel of five alleles. Further details: species or system human. The protocol:
HLA Binding Assay. Binding activity was analyzed atEpiVax (Providence, R.I.). The binding assay used (Steere A C et al., (2006), J Exp Med, 2003(4):961-71) yielded an indirect measure of peptide-MHC affinity. Soluble HLA molecules were loaded onto a 96-well plate with the unlabeled experimental Tregitopes and labeled control peptide. Once the binding mixture reached steady equilibrium (at 24 hours), the HLA-Tregitope complexes were captured on an ELISA plate coated with anti-human DR antibody and detected with a Europium-linked probe for the label (PerkinElmer, Waltham, Mass.). Time-resolved fluorescence measuring bound labeled control peptide is assessed by a SpectraMax® M5 unit (Spectramax, Radnor, Pa.). Binding of experimental Tregitopes was expressed as the percent inhibition of the labeled control peptide (experimental fluorescence/control fluorescence multiplied by 100). […]
CD4+ effector memory T cells contained within PBMC cell populations can be induced to proliferate in response to stimulation with known T cell epitopes. […] Binding of experimental Tregitopes is expressed as the percent inhibition of the labeled control peptide (experimental fluorescence/control fluorescence multiplied by 100). […]

Data set [2] relates to HLA-DRB1*0101, *0301, *0401, *0701, *1101, *1301 and *1501 alleles. Description: In vitro HLA DRB1 binding assay, panel of seven alleles. As to conditions: for breadth of binding to HLA DRB1 alleles: seven alleles. Further details: species or system human. The protocol: The six FV peptides were tested for in vitro binding to HLA-DRB1*0101, *0301, *0401, *0701, *1101, *1301 and *1501 alleles.

Data set [3] concerns CD4+ T cells in PBMCs from healthy donors. Description: Tetanus Toxoid Bystander Suppression Assay (TTBSA). It counts as cell-based, human. The settings on record: for inhibition of the CD4+ T memory response / T effector proliferation in the TTBSA: PBMC from three HLA-diverse donors.
In data set [4] the test system is CD4+ effector memory T cells. Kind of data set: Suppression of Tetanus Toxoid stimulated CD4+ effector T cells in PBMC. It counts as cell-based, human. Also noted: CD4+ T cell activation reduced by: dose or concentration left out as unconfirmed. As to the method:
Previously harvested and frozen PBMC were thawed and suspended in conditioned chRPMI (3.3×10^6 cells/mL) by conventional means. Cells were stained with CFSE (Cat #: 65-0850-84, Affymetrix, Santa Clara, Calif.) and plated at 300,000 cells per well. Plates were incubated overnight (37° C. in 5% CO2). […] Previous titration experiments performed at EpiVax (EpiVax, Providence, R.I.) have established that stimulation with 0.5 μg/ml Tetanus Toxoid (TT) (Astarte Biologics, Bothell, Wash.) elicits a measurable CD4+ effector memory T cells response in PBMC drawn from healthy control donors (Rhode Island Blood Center, Providence, R.I.). Tetanus Toxoid stock (100 μg/mL) (Astarte Biologics, Bothell, Wash.) was diluted in conditioned chRPMI yielding a working concentration of 1 ug/mL. […] All plates were then incubated for six additional days. On assay day five, 100 μL of supernatant was removed from each well and replaced with freshly conditioned chRPMI.
On assay day seven, cells were removed from incubation. Cells were labeled for live/dead discrimination, for surface markers CD127, CCR7, CD4, CD45RA, and CD25 and for intracellular FoxP3. Stained cells were further prepared for FACS analysis by conventional means. Cells were first gated to eliminate aggregates and dead cells. Live cells were gated for CD4 T cells and all subsequent analysis was done on this population. The activated Teffector population was identified as the CD4+/CD25-high/FoxP3-intermediate (CD4+/CD25^1/FoxP3int) (FIG. 8A).
Proliferation of CD4+/CD25-high (CD4^+/CD25^hi) T cells was estimated from the dilution of the CFSE stain (Cat #: 65-0850-84, Affymetrix, Santa Clara, Calif.) and % proliferation determined by the CFSE-low (CFSEL^lo) population (FIG. 8B).

The test system of another data set is PBMCs. It counts as cell-based, human. As to the method:
For the T reg assays, PBMCs were thawed according standard procedure, labeled with carboxyfluorescein succinimidyl ester (CFSE), and rested overnight in 96 well culture plate prior to use in in vitro assays. To evaluate the dose response of FV621 on the viability, cells were incubated with FV621 for 2, 3, 5 and 7 days in culture and live cells evaluated by flow cytometry using a live-dead viability dye and by counting in a cellometer (Nexcelom) using trypan blue exclusion. […]
To rule out the possibility that the effect of FV621 was related to toxic effects of the peptide, which might simulate a suppressive effect in vitro, we evaluated the viability of cells in culture with FV621 using two different methods. Cells were cultured in the presence of FV621 in a 96 well plate for 2, 3, 5 and 7 days after which cells were collected and stained with live-dead viability dye and analyzed by flow cytometry (data not shown) and by trypan blue exclusion and counting with a cellometer (Nexcelom). The absolute number of live cells that was counted at days 2, 3, 5 and 7 after stimulation with different doses of FV621 Tregitope was similar by flow cytometry.

“Also recorded” adds a separate entry of the source.

Regarding `CC[C@H](C)[C@H](NC(=O)[C@H](CC(C)C)NC(=O)[C@H](CC(C)C)NC(=O)[C@@H]1CCCN1C(=O)CNC(=O)[C@@H](NC(=O)[C@H](CC(C)C)NC(=O)CNC(=O)[C@H](CO)NC(=O)[C@H](Cc1c[nH]cn1)NC(=O)[C@@H](NC(=O)[C@H](CC(=O)O)NC(=O)[C@H](CCCCN)NC(=O)[C@H](CCC(=O)O)NC(C)=O)[C@@H](C)CC)[C@@H](C)CC)C(N)=O` [SEQ ID NO: 6], in data set [1], the HLA binding profile entry is recorded as “highly-restricted HLA binding profiles”. The “breadth of binding to HLA DRB1 alleles” value in data set [2] (listed as FV1737) is reported as “somewhat more restricted in the breadth of binding; also recorded: more limited binding to HLA DR”. Besides, the “inhibition of the CD4+ T memory response / T effector proliferation in the TTBSA” value in data set [3] is “did not inhibit”.
In the case of `CC[C@H](C)[C@H](NC(=O)[C@H](C)NC(=O)[C@H](Cc1c[nH]cn1)NC(=O)[C@H](Cc1ccccc1)NC(=O)[C@H](CCC(=O)O)NC(=O)[C@H](Cc1c[nH]cn1)NC(=O)[C@H](CO)NC(C)=O)C(=O)N[C@@H](CC(N)=O)C(=O)NCC(=O)N[C@@H](CCSC)C(=O)N[C@H](C(=O)N[C@@H](Cc1ccc(O)cc1)C(=O)N[C@@H](CO)C(=O)N[C@@H](CC(C)C)C(=O)N1CCC[C@H]1C(N)=O)[C@@H](C)CC` [SEQ ID NO: 7], the “breadth of binding to HLA DRB1 alleles” value in data set [2] is “bind to multiple HLA DRB1 alleles”. The “inhibition of the CD4+ T memory response / T effector proliferation in the TTBSA” value in data set [3] is “did not inhibit”.
Regarding “G628H: FV621 with point mutation at TCR facing position G628H (glycine changed to histidine) (ILTIHFTHHSFIYGK)”, the “binding affinity to HLA DR alleles (in words)” value in data set [2] (across the alleles tested) is “identical to FV621”. In data set [3] (point-mutated FV621 peptides, data not shown), the “suppressive capacity on TT-induced memory CD4 T cell proliferation relative to FV621” value is reported as “significantly diminished suppressive capacity”.
Turning to “IHSIHFSGHVFTVRK (listed as Homo sapiens) [SEQ ID NO: 2]”, the “proliferation of CD4+ T cells and activated T effector T cells” value in data set [4] (5, 10, 15, and 20 ug/ml, two donors) was “suppressed proliferation of CD4+ T cells and activated T effector T cells in a dose dependent manner”. The “CD4+ T cell activation reduced by” value is on record as 70% in data set [4] (Donor 096, with TT) and 50% in data set [4] (Donor 120, with TT).
Turning to `CC(=O)N[C@@H](Cc1ccccc1)C(=O)N[C@@H](C)C(=O)N[C@H](C(=O)N[C@@H](Cc1ccccc1)C(=O)N[C@@H](CC(=O)O)C(=O)N[C@@H](CCC(=O)O)C(=O)N[C@@H](CC(N)=O)C(=O)N[C@@H](CCCCN)C(=O)N[C@@H](CO)C(=O)N[C@@H](Cc1c[nH]c2ccccc12)C(=O)N[C@@H](Cc1ccc(O)cc1)C(=O)N[C@@H](CC(C)C)C(=O)N[C@@H](CCC(=O)O)C(=O)N[C@@H](CC(=O)O)C(=O)N[C@@H](CC(N)=O)C(N)=O)C(C)C` [SEQ ID NO: 4], the HLA binding profile result in data set [1] is “highly-restricted HLA binding profiles”. The “breadth of binding to HLA DRB1 alleles” value in data set [2] (listed as FV548) is “somewhat more restricted in the breadth of binding; also recorded: more limited binding to HLA DR”. Moreover, the “inhibition of the CD4+ T memory response / T effector proliferation in the TTBSA” value in data set [3] is given as “did not inhibit”.
As for `CC[C@H](C)[C@H](NC(=O)[C@H](CC(N)=O)NC(=O)[C@H](CO)NC(=O)[C@H](CCC(=O)O)NC(C)=O)C(=O)N[C@@H](CCSC)C(=O)N[C@@H](CO)C(=O)N[C@H](C(=O)N[C@H](C(=O)N[C@@H](CC(N)=O)C(=O)NCC(=O)N[C@@H](Cc1ccc(O)cc1)C(=O)N[C@H](C(=O)N1CCC[C@H]1C(=O)N[C@@H](CCC(=O)O)C(=O)N[C@@H](CO)C(N)=O)C(C)C)[C@@H](C)CC)[C@@H](C)O` [SEQ ID NO: 5], in data set [2] (listed as FV582), the “breadth of binding to HLA DRB1 alleles” value is “somewhat more restricted in the breadth of binding; also recorded: more limited binding to HLA DR”. In addition, the “inhibition of the CD4+ T memory response / T effector proliferation in the TTBSA” value in data set [3] is given as “did not inhibit”.
For the compound `CC[C@H](C)[C@H](NC(C)=O)C(=O)N[C@@H](CC(C)C)C(=O)N[C@H](C(=O)N[C@H](C(=O)N[C@@H](Cc1c[nH]cn1)C(=O)N[C@@H](Cc1ccccc1)C(=O)N[C@H](C(=O)NCC(=O)N[C@@H](Cc1c[nH]cn1)C(=O)N[C@@H](CO)C(=O)N[C@@H](Cc1ccccc1)C(=O)N[C@H](C(=O)N[C@@H](Cc1ccc(O)cc1)C(=O)NCC(=O)N[C@@H](CCCCN)C(N)=O)[C@@H](C)CC)[C@@H](C)O)[C@@H](C)CC)[C@@H](C)O` [SEQ ID NO: 1], in the data set with PBMCs (days 2, 3, 5 and 7, different doses), the “absolute number of live cells by flow cytometry” value is “similar”. For the same compound, in the data set with PBMCs (highest dose), the “decreased viability by trypan blue exclusion” value is reported as 10-15%.
